Assays:
Assay type in all cases: cell-based, mouse
[1] = test system: NOS2 mRNA expression in RAW 264.7 cells; test: qRT-PCR of NOS2 mRNA in IL-4/IL-13-stimulated RAW 264.7 cells; conditions: Mus musculus, RAW264.7, IL-4/IL-13 (20 ng/mL) plus compound 10 μM, 12 h, stimulated control = 100%, mean ± SD, read-out: NOS2 mRNA Relative Expression (%)
Source text: (§1) We first investigated the impacts of a series of commercially available natural pseudolaric acids or their O-pyranosides (Figure 1) on the pro-tumoral phenotype of TAMs, which play a critical role in anti-tumor immune response modulation. […] In contrast, M1-biased macrophages combat tumor growth and bacterial infections by expressing inducible nitric oxide synthase 2 (NOS2), which catalyzes the production of nitric oxide (NO). Recognizing the pivotal roles of ARG1 and NOS2, we utilized these molecules as key biomarkers and effectors for assessing macrophage immune function. In our experiments, the mouse monocyte–macrophage leukemia cell line RAW 264.7 was induced with IL-4/IL-13 to acquire an M2-like pro-tumoral phenotype. Concurrently, the cells were treated with the pseudolaric acid-related natural products 1–7 at a concentration of 10 μM for 12 h. Additionally, PLX3397 was used as a positive control at a concentration of 0.5 μM. […] As shown in Table 1 and Figure S1A, pseudolaric acid B (1), its deacetoxyl analogue 2 (pseudolaric acid C), and β-D-glucoside 7 substantially attenuated the upregulation of ARG1 mRNA expression induced by IL-4/IL-13, with statistically significant effects. In contrast, bis-carboxylic acids analogs 4 (pseudolaric acid C2) and 6 (demethoxydeacetoxypseudolaric acid B) have no significant impact on ARG1 mRNA expression.
(§2) With these carboxylic acid-modified derivatives in hand, we investigated their impact at 10 μM on ARG1 and NOS2 mRNA expression in RAW 264.7 cells pre-stimulated with IL-4/IL-13 to evaluate the effects on the pro-tumor phenotype of macrophages. […] Further removal of one hydroxyl from the glycerol moiety 15 further enhanced the inhibitory effect on ARG1 expression but had no significant impact on NOS2 expression.
(§3) Total RNA was isolated from cells using the EZ-press RNA Purification Kit (EZBioscience, Suzhou, China) and subjected to reverse transcription with the 5×HiScript II qRT SuperMix II (Vazyme, Nanjing, China). PCR was performed with the 2×ChamQ Universal SYBR qPCR Master Mix (Vazyme, Nanjing, China). All primers for qRT-PCR are described in Table S1. The 2^−∆∆Ct method was utilized to calculate the fold change in gene expression, with the expression levels in the stimulated group set as the baseline for normalization.

[2] = test system: Raw264.7 cells; test: Cell viability (CCK-8) of RAW264.7 cells; conditions: IL-4/IL-13 plus compound 10 μM, 12 h
Procedure: Cells were seeded in 96-well tissue culture plates. On the next day, cells were exposed to various concentrations of compounds and further cultured for the indicated period. Finally, cell proliferation was determined by using the Cell Counting Kit (CCK-8) (Dojindo, Kumamoto, Japan) assay.
Figure S2. Effects of natural pseudolaric acids 1-4, 6 and their O-pyranosides 5, 7 as well as the derivatives 8-18 o f 1 on Raw264.7 cell viability. Raw264.7 cells were treated with IL-4/IL-13 alone or combined with indicated compounds (10 μM) for 12 h. After incubation, the cell viability was determined using a cell counting kit (CCK-8, Dojindo, Japan) assay.
(1 picture or pasted object on this page, not shown here)

[3] = test system: ARG1 mRNA expression in RAW 264.7 cells; test: qRT-PCR of ARG1 mRNA in IL-4/IL-13-stimulated RAW 264.7 cells; conditions: Mus musculus, RAW264.7, IL-4/IL-13 (20 ng/mL) plus compound 10 μM, 12 h, stimulated control = 100%, mean ± SD, read-out: ARG1 mRNA Relative Expression (%)
Source text: as §1, §2, §3

[4] = test system: ARG1, NOS2, CD206 and MHC II mRNA expression in RAW 264.7 cells; test: qRT-PCR of ARG1, NOS2, CD206, MHC II in RAW264.7 cells at multiple concentrations; conditions: RAW 264.7 cells stimulated with IL-4/IL-13, multiple concentrations, 12 h
Procedure: We also extended the test to primary murine macrophages derived from bone marrow (BMDMs), which were cultured in vitro with recombinant mouse M-CSF for 6 days. The BMDMs were then stimulated with IL-4/IL-13, leading to their transformation into M2-like pro-tumoral macrophages. This transformation was characterized by an increase in both ARG1 and CD206 expression and a decrease in both NOS2 and MHC II expression. […] Subsequently, we assessed the capacity of compound 12 to inhibit the M2-like polarization of macrophages using CSF-1-differentiated mouse BMDMs. These cells were treated with IL-4 and IL-13 for 48 h, and the expression levels of CD206, an M2-type marker, and CD86, an M1-type marker, were analyzed via flow cytometry. […]
Figure 2 Compound 12 inhibits the M2-like polarized phenotype of macrophages. […] The expression levels of the markers CD206 and CD86 on induced macrophages were determined by flow cytometry, and the mean fluorescence intensity (MFI) was analyzed with FlowJo (C), or the cells were lysed and immunoblotted to detect the indicated proteins (D). […] Data are represented as means ± SD. ^### p < 0.001 vs. non-stimulated control group, * p < 0.05, ** p < 0.01, *** p < 0.001 vs. stimulated control group. p-values were determined using one-way ANOVA.

SMILES: COC(=O)C1=CC[C@@]23CC[C@@H]([C@@](C)(/C=C/C=C(\C)C(=O)O)OC2=O)[C@@]3(OC(C)=O)CC1 [compound 1, pseudolaric acid B]
- activity at 10 µM [1]: 135 ± 19.5%
- cell viability [2]: only a minimal reduction in cell viability
- mrna remaining at 10 µM [3]: 9.9 ± 0.8%
- mRNA expression levels of ARG1 and CD206 [4]: significantly reduced
- mRNA expression levels of NOS2 and MHC II [4]: upregulated the mRNA expression levels of NOS2 and MHC II in a dose-dependent manner

Reference: publication PMC12114375, “Discovery of Hydrazineyl Amide Derivative of Pseudolaric Acid B for Reprogramming Tumor-Associated Macrophages Against Tumor Growth” (Molecules, 2025)
